Our source for the IC50 values is patent US20230167127A1, “COMPOUNDS AND THEIR USE IN THE TREATMENT OF BACTERIAL INFECTION” (Hoffmann-La Roche Inc., priority 2020, published 2023).

Where a name gives a salt, the structure may show the parent alone.

One assay relates to Escherichia coli ATCC 25922. The assay can be described thus: 50% growth inhibitory concentration (IC50) determination, Iso-Sensitest broth dilution. The assay is classed as cell-based. Particulars: Escherichia coli, ATCC25922, 16 h, strain Escherichia coli ATCC 25922; 10-point broth dilution, optical density at 600 nm over 16 h; read-out: Escherichia coli growth inhibition IC50. A digest of the protocol:
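Growth was tracked as optical density at 600 nm every 20 minutes for 16 h at 35±2° C. Compounds from DMSO stocks were serially diluted twofold over 10 points (e.g. 50–0.097 μM final) in Iso-Sensitest broth. Inhibition computed in log-phase growth to give IC50.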
For orientation: In broth dilution the organism is exposed to a series of concentrations in liquid medium.
On to `Cc1ncc(F)c2c1C[C@H](CNCC[C@H]1CN(c3cnc4c(n3)NC(=O)CO4)C(=O)O1)C2` [Example 429], for which the IC50 was under 97.7 nM.

As to `Cc1nc(Cl)c2c(c1F)CC(CNCCC1CN(c3ccc4c(n3)NC(=O)CO4)C(=O)O1)C2` (stereo not drawn) [Example 256, 6-[5-[2-[(1-Chloro-4-fluoro-3-methyl-6,7-dihydro-5H-cyclopenta[c]pyridin-6-yl)methylamino]ethyl]-2-oxo-1,3-oxazolidin-3-yl]-4H-pyrido[3,2-b][1,4]oxazin-3-one], the IC50 is under 97.7 nM.

For the molecule `Cc1ncc(F)c2c1CC(C(C)NCC[C@@H]1CN(c3cnc4c(n3)NC(=O)CO4)C(=O)O1)C2` (stereo partly drawn) [Example 331], the IC50 was under 97.7 nM.

For the molecule `N[C@@H]1c2cccc(Cl)c2C[C@H]1CNCC[C@H]1CN(c2cnc3c(n2)NC(=O)CO3)C(=O)O1` [Example 402, 6-[(5S)-5-[2-[[(1S,2S)-1-amino-4-chloro-2,3-dihydro-1H-inden-2-yl]methylamino]ethyl]-2-oxo-1,3-oxazolidin-3-yl]-4H-pyrazino[2,3-b][1,4]oxazin-3-one], the IC50 was under 97.7 nM.

Consider `O=C1COc2ccc(N3CC(CCNCC4Cc5cncc(F)c5C4)OC3=O)nc2N1` (stereo not drawn) [Example 288, 6-[5-[2-[(4-fluoro-6,7-dihydro-5H-cyclopenta[c]pyridin-6-yl)methylamino]ethyl]-2-oxo-1,3-oxazolidin-3-yl]-4H-pyrido[3,2-b][1,4]oxazin-3-one], for which the IC50 is under 97.7 nM.

Turning to `Cc1nccc2c1CC(CNCCC1CN(c3ccc4c(n3)NC(=O)CO4)C(=O)O1)C2N` (racemic) [Example 130, 6-[2-oxo-5-[2-[(rac-5,6-trans-5-amino-1-methyl-6,7-dihydro-5H-cyclopenta[c]pyridin-6-yl)methylamino]ethyl]-1,3-oxazolidin-3-yl]-4H-pyrido[3,2-b][1,4]oxazin-3-one; formic acid], the IC50 was determined as 868 nM.

With `NC1c2ccnc(Cl)c2CC1CNCCC1CN(c2ccc3c(n2)NC(=O)CO3)C(=O)O1` (stereo not drawn) [Example 123, 6-[2-oxo-5-[2-[[5,6-trans-5-amino-1-chloro-6,7-dihydro-5H-cyclopenta[c]pyridin-6-yl]methylamino]ethyl]-1,3-oxazolidin-3-yl]-4H-pyrido[3,2-b][1,4]oxazin-3-one; formic acid], the IC50 was determined as 248 nM.

In the case of `NC(=O)COc1cc(F)c2c(c1)CC(CNCCc1cn(-c3cnc4c(n3)NC(=O)CO4)c(=O)o1)C2` (stereo not drawn) [Example 306, 2-[[7-fluoro-2-[[2-[2-oxo-3-(3-oxo-4H-pyrazino[2,3-b][1,4]oxazin-6-yl)-1,3-oxazol-5-yl]ethylamino]methyl]-2,3-dihydro-1H-inden-5-yl]oxy]acetamide; formic acid], the IC50 is under 97.7 nM.

As to `Cc1nc(N(C)C)cc2c1CC(CNCCC1CN(c3ccc4c(n3)NC(=O)CO4)C(=O)O1)C2` (stereo not drawn) [Example 419, 6-[5-[2-[[3-(Dimethylamino)-1-methyl-6,7-dihydro-5H-cyclopenta[c]pyridin-6-yl]methylamino]ethyl]-2-oxo-1,3-oxazolidin-3-yl]-4H-pyrido[3,2-b][1,4]oxazin-3-one], the IC50 amounted to 225 nM.

For the molecule `Cc1ncc(F)c2c1C[C@H](CNCC[C@@H]1CN(c3cnc4c(n3)NC(=O)CO4)C(=O)O1)C2` [Example 430], the IC50 was under 97.7 nM.

On to `O=C1COc2ccc(N3CC(CCNC4Cc5cccc(Cl)c5C4)OC3=O)nc2N1` (stereo not drawn) [Example 3, 6-[5-[2-[(4-chloro-2,3-dihydro-1H-inden-2-yl)amino]ethyl]-2-oxo-1,3-oxazolidin-3-yl]-4H-pyrido[3,2-b][1,4]oxazin-3-one hydrochloride], for which the 50% inhibitory concentration (IC50) was 940 nM.

Take `N#Cc1cc(OCc2cn[nH]c2)cc2c1CC(CNCCC1CN(c3cnc4c(n3)NC(=O)CO4)C(=O)O1)C2` (stereo not drawn) [Example 405, 2-[[2-[2-oxo-3-(3-oxo-4H-pyrazino[2,3-b][1,4]oxazin-6-yl)-1,3-oxazolidin-5-yl]ethylamino]methyl]-6-(1H-pyrazol-4-ylmethoxy)-2,3-dihydro-1H-indene-4-carbonitrile; formic acid]: the concentration for half-maximal inhibition (IC50) was under 97.7 nM.

Take `Cc1nc(OCCNC(C)C)c(C)c2c1CC(CNCCC1CN(c3ccc4c(n3)NC(=O)CO4)C(=O)O1)C2` (stereo not drawn) [Example 201, 6-[5-[2-[[1,4-dimethyl-3-[2-(propan-2-ylamino)ethoxy]-6,7-dihydro-5H-cyclopenta[c]pyridin-6-yl]methylamino]ethyl]-2-oxo-1,3-oxazolidin-3-yl]-4H-pyrido[3,2-b][1,4]oxazin-3-one]: the IC50 was 157 nM.

With `NC(CNCC1CN(c2ccc3c(n2)NC(=O)CO3)C(=O)O1)C1Cc2cccc(Cl)c2C1` (stereo not drawn) [Example 158, 6-[5-[[[2-amino-2-(4-chloro-2,3-dihydro-1H-inden-2-yl)ethyl]amino]methyl]-2-oxo-1,3-oxazolidin-3-yl]-4H-pyrido[3,2-b][1,4]oxazin-3-one; formic acid], the IC50 amounted to 164 nM.

In the case of `N#Cc1nc(OCCN)cc2c1CC(CNCCC1CN(c3ccc4c(n3)NC(=O)CO4)C(=O)O1)C2` (stereo not drawn) [Example 127, 3-(2-aminoethoxy)-6-[[2-[2-oxo-3-(3-oxo-4H-pyrido[3,2-b][1,4]oxazin-6-yl)-1,3-oxazolidin-5-yl]ethylamino]methyl]-6,7-dihydro-5H-cyclopenta[c]pyridine-1-carbonitrile; formic acid], the half-inhibitory concentration (IC50) is 189 nM.

`N#Cc1cccc2c1CC(CNCCC1CN(c3cnc4c(n3)NC(=O)CO4)C(=O)O1)C2` (stereo not drawn) [Example 35, 2-[[2-[2-oxo-3-(3-oxo-4H-pyrazino[2,3-b][1,4]oxazin-6-yl)-1,3-oxazolidin-5-yl]ethylamino]methyl]-2,3-dihydro-1H-indene-4-carbonitrile]: the IC50 is under 97.7 nM.

For `O=C1COc2ncc(N3CC4(CCN(CC5Cc6c(F)cc(OCc7cc[nH]n7)c(F)c6C5)CC4)OC3=O)nc2N1` (stereo not drawn) [Example 396, 6-[8-[[4,7-difluoro-5-(1H-pyrazol-3-ylmethoxy)-2,3-dihydro-1H-inden-2-yl]methyl]-2-oxo-1-oxa-3,8-diazaspiro[4.5]decan-3-yl]-4H-pyrazino[2,3-b][1,4]oxazin-3-one], the half-inhibitory concentration (IC50) is 161 nM.

With `NC1c2cccc(Cl)c2CC1CNCCC1CN(c2cnc3c(n2)NC(=O)CO3)C(=O)O1` (racemic) [Example 136, 6-[2-oxo-5-[2-[[rac-1,2-trans-1-amino-4-chloro-2,3-dihydro-1H-inden-2-yl]methylamino]ethyl]-1,3-oxazolidin-3-yl]-4H-pyrazino[2,3-b][1,4]oxazin-3-one; formic acid], the half-maximal inhibitory concentration (IC50) is 112 nM.

Consider `N#Cc1cccc2c1CC(NCCNC1CC(=O)N(c3ccc4c(n3)NC(=O)CO4)C1)C2` (stereo not drawn) [Example 121, 2-[2-[[5-oxo-1-(3-oxo-4H-pyrido[3,2-b][1,4]oxazin-6-yl)pyrrolidin-3-yl]amino]ethylamino]-2,3-dihydro-1H-indene-4-carbonitrile], for which the concentration for half-maximal inhibition (IC50) came out at 167 nM.

`NC1(COc2cc(F)c3c(c2)CC(CNCCC2CN(c4ccc5c(n4)NC(=O)CO5)C(=O)O2)C3)CC1` (stereo not drawn) [Example 160, 6-[5-[2-[[6-[(1-aminocyclopropyl)methoxy]-4-fluoro-2,3-dihydro-1H-inden-2-yl]methylamino]ethyl]-2-oxo-1,3-oxazolidin-3-yl]-4H-pyrido[3,2-b][1,4]oxazin-3-one]: the IC50 is under 97.7 nM.

Consider `N#Cc1cc(OCCN)cc2c1CC(CNCCC1CN(c3ccc4c(n3)NC(=O)CO4)C(=O)O1)C2` (stereo not drawn) [Example 188, 6-(2-aminoethoxy)-2-[[2-[2-oxo-3-(3-oxo-4H-pyrido[3,2-b][1,4]oxazin-6-yl)-1,3-oxazolidin-5-yl]ethylamino]methyl]-2,3-dihydro-1H-indene-4-carbonitrile], for which the half-maximal inhibitory concentration (IC50) is under 97.7 nM.

Regarding `N#Cc1cccc2c1CC(CNCCC1(N)CC(=O)N(c3ccc4c(n3)NC(=O)CO4)C1)C2` (stereo not drawn) [Example 138, 2-[[2-[3-amino-5-oxo-1-(3-oxo-4H-pyrido[3,2-b][1,4]oxazin-6-yl)pyrrolidin-3-yl]ethylamino]methyl]-2,3-dihydro-1H-indene-4-carbonitrile], the IC50 turned out to be 359 nM.

For the molecule `Cc1nnc(C)c2c1CC(CNCCC1CN(c3ccc4c(n3)NC(=O)CS4)C(=O)O1)C2` (stereo not drawn) [Example 285, 5-[2-[(1,4-dimethyl-6,7-dihydro-5H-cyclopenta[d]pyridazin-6-yl)methylamino]ethyl]-3-(3-oxo-4H-pyrido[3,2-b][1,4]thiazin-6-yl)-1,3-oxazolidin-2-one], the IC50 came out at 925 nM.

`Cn1nnc(COc2cc(C#N)c3c(c2)CC(CNCCC2CN(c4cnc5c(n4)NC(=O)CO5)C(=O)O2)C3)n1` (stereo not drawn) [Example 389, 6-[(2-methyltetrazol-5-yl)methoxy]-2-[[2-[2-oxo-3-(3-oxo-4H-pyrazino[2,3-b][1,4]oxazin-6-yl)-1,3-oxazolidin-5-yl]ethylamino]methyl]-2,3-dihydro-1H-indene-4-carbonitrile]: the 50% inhibitory concentration (IC50) was under 97.7 nM.

Turning to `Cc1ncc(F)c2c1CC(NCCCC1CN(c3cnc4c(n3)NC(=O)CO4)C(=O)O1)C2` (stereo not drawn) [Example 79, 6-[5-[3-[(4-fluoro-1-methyl-6,7-dihydro-5H-cyclopenta[c]pyridin-6-yl)amino]propyl]-2-oxo-1,3-oxazolidin-3-yl]-4H-pyrazino[2,3-b][1,4]oxazin-3-one], the IC50 is under 97.7 nM.

The assay is the same for the next values; noted with them: strain Escherichia coli ATCC 25922; 10-point broth dilution, optical density at 600 nm over 16 h; read-out: Escherichia coli growth inhibition IC50.
`Cc1ncc(F)c2c1CC(NC(C)CCC1CN(c3cnc4c(n3)NC(=O)CO4)C(=O)O1)C2` (single isomer, unassigned; isomer b) [Example 334, 6-[5-[3-[(4-fluoro-1-methyl-6,7-dihydro-5H-cyclopenta[c]pyridin-6-yl)amino]butyl]-2-oxo-1,3-oxazolidin-3-yl-4H-pyrazino[2,3-b][1,4]oxazin-3-one, Isomer B]: the IC50 worked out at 321 nM.

Consider `N#Cc1cccc2c1CC(CN1CCC3(CN(c4ccc5c(n4)NC(=O)CO5)C(=O)O3)C(CN)C1)C2` (racemic) [Example 252, 2-[[rac-5,6-trans-6-(Aminomethyl)-2-oxo-3-(3-oxo-4H-pyrido[3,2-b][1,4]oxazin-6-yl)-1-oxa-3,8-diazaspiro[4.5]decan-8-yl]methyl]-2,3-dihydro-1H-indene-4-carbonitrile; formic acid], for which the IC50 is 156 nM.

Usually IC50 stands for the concentration that gives 50% inhibition.
